Experimental data from patent US4243408A, “Herbicidal N-triazolylmethyl-substituted alpha-haloacetanilide” (Chevron Research Company, priority 1978, dated 1981).

What was measured:
Type in all cases: in vivo
[1] = system: Crabgrass (Digitaria sanguinalis); assay: Pre-Emergent Test, herbicidal effectiveness; details: pre-emergence, 504 h, 33 micrograms per cm^2, 3 weeks, 0-to-100 scale, read-out: Herbicidal Effectiveness, % Control Pre, C
Procedure: (§1) An acetone solution of the test compound was prepared by mixing 750 mg of the compound, 220 mg of a nonionic surfactant and 25 ml of acetone. This solution was added to approximately 125 ml of water containing 156 mg of surfactant.
(§2) Seeds of the test vegetation were planted in a pot of soil and the test solution was sprayed uniformly onto the soil surface at a dose of 33 micrograms/cm^2. The pot was watered and placed in a greenhouse. […] At the end of this period, the herbicidal effectiveness of the compound was rated based on the physiological observations. A 0-to-100 scale was used, 0 representing no phytotoxicity, 100 representing complete kill.

[2] = system: Lambsquarter (Chenopodium album); assay: Pre-Emergent Test, herbicidal effectiveness; details: pre-emergence, 504 h, 33 micrograms per cm^2, 3 weeks, 0-to-100 scale, read-out: Herbicidal Effectiveness, % Control Pre, L
Procedure: as §1, §2

[3] = system: Mustard (Brassica arvensis); assay: Pre-Emergent Test, herbicidal effectiveness; details: pre-emergence, 504 h, 33 micrograms per cm^2, 3 weeks, 0-to-100 scale
Procedure: as §1, §2

[4] = system: Pigweed (Amaranthus retroflexus); assay: Pre-Emergent Test, herbicidal effectiveness; details: pre-emergence, 504 h, 33 micrograms per cm^2, 3 weeks, 0-to-100 scale, read-out: Herbicidal Effectiveness, % Control Pre, P
Procedure: as §1, §2

Watergrass (Echinochloa) [5] = assay: Pre-Emergent Test, herbicidal effectiveness; details: pre-emergence, 504 h, 33 micrograms per cm^2, 3 weeks, 0-to-100 scale, read-out: Herbicidal Effectiveness, % Control Pre, W
Procedure: as §1, §2

Wild Oats (Avena fatua) [6] = assay: Pre-Emergent Test, herbicidal effectiveness; details: pre-emergence, 504 h, 33 micrograms per cm^2, 3 weeks, 0-to-100 scale, read-out: Herbicidal Effectiveness, % Control Pre, O
Procedure: as §1, §2

[7] = system: Crabgrass (Digitaria sanguinalis); assay: Post-Emergent Test, herbicidal effectiveness; details: post-emergence, 504 h, 33 micrograms per cm^2, 3 weeks, 0-to-100 scale, read-out: Herbicidal Effectiveness, % Control Post, C
[8] = system: Lambsquarter (Chenopodium album); assay: Post-Emergent Test, herbicidal effectiveness; details: post-emergence, 504 h, 33 micrograms per cm^2, 3 weeks, 0-to-100 scale, read-out: Herbicidal Effectiveness, % Control Post, L
[9] = system: Mustard (Brassica arvensis); assay: Post-Emergent Test, herbicidal effectiveness; details: post-emergence, 504 h, 33 micrograms per cm^2, 3 weeks, 0-to-100 scale
[10] = system: Pigweed (Amaranthus retroflexus); assay: Post-Emergent Test, herbicidal effectiveness; details: post-emergence, 504 h, 33 micrograms per cm^2, 3 weeks, 0-to-100 scale, read-out: Herbicidal Effectiveness, % Control Post, P
Watergrass (Echinochloa) [11] = assay: Post-Emergent Test, herbicidal effectiveness; details: post-emergence, 504 h, 33 micrograms per cm^2, 3 weeks, 0-to-100 scale, read-out: Herbicidal Effectiveness, % Control Post, W
Wild Oats (Avena fatua) [12] = assay: Post-Emergent Test, herbicidal effectiveness; details: post-emergence, 504 h, 33 micrograms per cm^2, 3 weeks, 0-to-100 scale, read-out: Herbicidal Effectiveness, % Control Post, O

SMILES | pest or weed control at 33 µg/cm2 [1] [%] | pest or weed control at 33 µg/cm2 [2] [%] | pest or weed control at 33 µg/cm2 [3] [%] | pest or weed control at 33 µg/cm2 [4] [%] | pest or weed control at 33 µg/cm2 (Watergrass (Echinochloa) [5]) [%] | pest or weed control at 33 µg/cm2 (Wild Oats (Avena fatua) [6]) [%] | pest or weed control at 5000 µg/mL, 33 µg/cm2 [7] [%] | pest or weed control at 5000 µg/mL, 33 µg/cm2 [8] [%] | pest or weed control at 5000 µg/mL, 33 µg/cm2 [9] [%] | pest or weed control at 5000 µg/mL, 33 µg/cm2 [10] [%] | pest or weed control at 5000 µg/mL, 33 µg/cm2 (Watergrass (Echinochloa) [11]) [%] | pest or weed control at 5000 µg/mL, 33 µg/cm2 (Wild Oats (Avena fatua) [12]) [%]
Cc1nnc(CCNc2c(C)cccc2C)[nH]1 [Compound 10A] | 0 | 0 | 0 | 0 | 0 | 0 | 0 | 0 | 0 | 0 | 0 | 0
Cc1nnc(CCN(C(=O)CCl)c2c(C)cccc2C)[nH]1 [Compound 10B] | 80 | 0 | 0 | 0 | 95 | 15 | 40 | 25 | 35 | 0 | 55 | 25
Cc1nnc(C(C)Nc2c(C)cccc2C)[nH]1 (stereo not drawn) [Compound 11A] | 0 | 0 | 0 | 0 | 0 | 0 | 0 | 0 | 0 | 0 | 0 | 0
Cc1nnc(C(C)N(C(=O)CCl)c2c(C)cccc2C)[nH]1 (stereo not drawn) [Compound 11B] | 100 | 100 | 80 | 90 | 100 | 97 | 55 | 25 | 20 | 20 | 73 | 10
Cc1cccc(C)c1NC(C)c1nnc[nH]1 (stereo not drawn) [Compound 12A] | 0 | 0 | 0 | 0 | 0 | 0 | 0 | 0 | 0 | 0 | 0 | 0
Cc1cccc(C)c1N(C(=O)CCl)C(C)c1nnc[nH]1 (stereo not drawn) [Compound 12B] | 100 | 75 | 75 | 90 | 100 | 97 | 65 | 45 | 0 | 20 | 80 | 45
Cc1cccc(C)c1N(CCc1nnc[nH]1)C(=O)CCl [Compound 13] | 85 | 75 | 20 | 40 | 97 | 25 | 60 | 0 | 0 | 0 | 63 | 20
CSc1nnc(CNc2c(C)cccc2C)n1C [Compound 14A] | 0 | 0 | 0 | 0 | 0 | 0 | 0 | 0 | 0 | 0 | 0 | 0
CSc1nnc(CN(C(=O)CCl)c2c(C)cccc2C)n1C [Compound 14B] | 90 | 0 | 0 | 0 | 100 | 10 | 0 | 0 | 0 | 0 | 0 | 0
CCc1nnc(CNc2c(C)cccc2CC)[nH]1 [Compound 15A] | 0 | 0 | 0 | 0 | 0 | 0 | 0 | 0 | 0 | 0 | 0 | 0
CCc1nnc(CN(C(=O)CCl)c2c(C)cccc2CC)[nH]1 [Compound 15B] | 100 | 100 | 100 | 100 | 100 | 100 | 75 | 35 | 35 | 30 | 80 | 55
CCc1cccc(C)c1NCc1nnc(C(C)C)[nH]1 [Compound 16A] | 0 | 0 | 0 | 0 | 0 | 0 | 0 | 0 | 0 | 0 | 0 | 0
CCc1cccc(C)c1N(Cc1nnc(C(C)C)[nH]1)C(=O)CCl [Compound 16B] | 100 | 100 | 95 | 95 | 100 | 100 | 70 | 35 | 40 | 40 | 75 | 70
